Tests used:
Experiment in all cases: relative viability (nuclei count vs DMSO), 5 days (fraction); higher = more cells survive
[1] = compound: C1=CC2=NC=CN=C2C=C1/C=C/3\C(=O)NC(=O)S3 + CS(=O)(=O)CCNCc1ccc(-c2ccc3ncnc(Nc4ccc(OCc5cccc(F)c5)c(Cl)c4)c3c2)o1 [Lapatinib] (partner 2 µM)
Method in brief: (§1)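 Medians of duplicate plates are given as relative viability. That measure is the nuclei count in treated wells divided by the count in vehicle wells. Counts were taken on 4× images of lung cancer cell lines in 1536-well plates, 5 days after pin-tool dosing the day after seeding with one drug alone or a fixed anchor-drug dose plus five library-drug doses (not always all listed) in √10 steps.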

BGJ398 + Tozasertib = compound: CCN1CCN(c2ccc(Nc3cc(N(C)C(=O)Nc4c(Cl)c(OC)cc(OC)c4Cl)ncn3)cc2)CC1 [BGJ398] + Cc1cc(Nc2cc(N3CCN(C)CC3)nc(Sc3ccc(NC(=O)C4CC4)cc3)n2)n[nH]1 [Tozasertib] (partner 0.1 µM)
Method in brief: as §1

BGJ398 + Alpelisib = compound: CCN1CCN(c2ccc(Nc3cc(N(C)C(=O)Nc4c(Cl)c(OC)cc(OC)c4Cl)ncn3)cc2)CC1 [BGJ398] + Cc1nc(NC(=O)N2CCC[C@H]2C(N)=O)sc1-c1ccnc(C(C)(C)C(F)(F)F)c1 [Alpelisib] (partner 2 µM)
Method in brief: as §1

BGJ398 + Olaparib = compound: CCN1CCN(c2ccc(Nc3cc(N(C)C(=O)Nc4c(Cl)c(OC)cc(OC)c4Cl)ncn3)cc2)CC1 [BGJ398] + O=C(c1cc(Cc2n[nH]c(=O)c3ccccc23)ccc1F)N1CCN(C(=O)C2CC2)CC1 [Olaparib] (partner 8 µM)
Method in brief: as §1

Cell Line	relative viability ([1]; first compound 0.02 µM)	relative viability ([1]; first compound 0.06325 µM)	relative viability ([1]; first compound 0.2 µM)	relative viability ([1]; first compound 0.6325 µM)	relative viability ([1]; first compound 2 µM)	relative viability (BGJ398 + Tozasertib; first compound 0.01 µM)	relative viability (BGJ398 + Tozasertib; first compound 0.1 µM)	relative viability (BGJ398 + Tozasertib; first compound 0.3162 µM)	relative viability (BGJ398 + Tozasertib; first compound 1 µM)	relative viability (BGJ398 + Alpelisib; first compound 0.01 µM)	relative viability (BGJ398 + Alpelisib; first compound 0.03162 µM)	relative viability (BGJ398 + Alpelisib; first compound 0.1 µM)	relative viability (BGJ398 + Alpelisib; first compound 0.3162 µM)	relative viability (BGJ398 + Alpelisib; first compound 1 µM)	relative viability (BGJ398 + Olaparib; first compound 0.01 µM)	relative viability (BGJ398 + Olaparib; first compound 0.03162 µM)	relative viability (BGJ398 + Olaparib; first compound 0.1 µM)	relative viability (BGJ398 + Olaparib; first compound 0.3162 µM)	relative viability (BGJ398 + Olaparib; first compound 1 µM)	relative viability (BGJ398 + Tozasertib; first compound 0.03162 µM)
LOU-NH91	0.734	0.786	0.81	0.739	0.585	0.656	0.698	0.541	0.737	0.727	0.531	0.717	0.491	0.697	0.884	0.707	0.92	0.699	0.927	
LU99A	0.976	1.06	1.07	0.854	0.645	0.286	0.261	0.197	0.265	0.532	0.49	0.534	0.487	0.411	0.266	0.26	0.281	0.276	0.292	0.282
LXF-289	0.829	0.932	0.883	0.857	0.908	0.173	0.207	0.167	0.196	0.983	1.03	1.02	0.957	0.947	1.01	0.973	1.17	0.919	1.07	0.189
NCI-H23	0.887	1.12	1.07	1.15	0.759	0.387	0.335	0.36	0.304	0.746	0.652	0.666	0.625	0.574	0.333	0.297	0.303	0.371	0.268	0.339
NCI-H322M	0.428	0.573	0.61	0.656	0.368	0.479	0.461	0.525	0.521	0.772	0.741	0.851	0.761	0.813	0.801	0.73	0.761	0.758	0.815	0.462
NCI-H358	0.554	0.497	0.461	0.359	0.274	0.0959	0.109	0.102	0.1	0.881	0.893	0.857	0.97	0.937	0.744	0.622	0.619	0.698	0.584	0.0952
NCI-H460	0.832	1.15	1.03	0.815	0.689	0.446	0.437	0.372	0.456	0.47	0.594	0.574	0.566	0.422	0.39	0.42	0.428	0.414	0.381	0.558
NCI-H520	0.842	0.92	0.832	0.757	0.882	0.424	0.321	0.273	0.271	0.888	0.886	0.506	0.414	0.243	0.265	0.355	0.314	0.202	0.238	0.421
NCI-H596	1.1	1.25	1.04	1.06	1.04	0.777	0.775	0.744	0.731	0.608	0.442	0.506	0.441	0.561	0.674	0.648	0.645	0.626	0.667	0.856
NCI-H647	1.06	1.75	1.15	0.957	0.903	0.366	0.406	0.24	0.304	1.05	1.19	1.06	1.26	1.15	0.51	0.643	0.694	0.521	0.603	0.294
NCI-H650	1.13	1.1	1.09	0.835	0.5	0.681	0.802	0.785	0.75	1.05	1.2	1.33	1.19	1.1	0.358	0.413	0.377	0.375	0.365	0.809
NCI-H661	0.46	0.495	0.464	0.45	0.39	0.325	0.365	0.354	0.362	0.594	1.08	0.715	0.526	0.614	0.7	0.737	0.822	0.736	0.727	0.369
NCI-H727	0.803	0.706	0.918	0.795	0.297	0.574	0.816	0.585	0.605	0.625	0.665	0.524	0.578	0.5	0.707	0.629	0.717	0.653	0.641	0.751
NCI-H838	1.06	1.09	0.969	0.827	0.707	0.317	0.262	0.234	0.201	0.84	0.955	0.968	0.895	0.732	0.731	0.754	0.749	0.741	0.667	0.305
NCI-H1355	0.811	0.929	1.05	0.919	0.766	0.57	0.455	0.491	0.538	0.71	0.828	0.9	0.837	0.823	0.714	0.769	0.736	0.729	0.7	0.566
NCI-H1395	1.13	1.06	1.46	0.935	0.963	0.739	0.72	0.624	0.511	0.982	1.02	0.994	0.719	0.604	0.441	0.426	0.434	0.428	0.409	0.789
